ChEMBL document CHEMBL5247667, “Design, synthesis and characterizations of prodrugs of brexanolone” (Bioorg Med Chem Lett, 2023)

Experiments:
[1] = Metabolic stability in human liver S9 fraction assessed as half life at 1 uM incubated for 60 min by LC-MS/MS method; type: ADME, subcellular
[2] = Metabolic stability in beagle dog plasma assessed as half life at 1 uM incubated for 60 min by LC-MS/MS method; type: ADME, cell-free, Canis lupus familiaris
[3] = Metabolic stability in Sprague-Dawley rat plasma assessed as half life at 1 uM incubated for 60 min by LC-MS/MS method; type: ADME, cell-free
[4] = Metabolic stability in human plasma assessed as half life at 1 uM incubated for 60 min by LC-MS/MS method; type: ADME, cell-free
[5] = Metabolic stability in beagle dog liver S9 fraction assessed as half life at 1 uM incubated for 60 min by LC-MS/MS method; type: ADME, subcellular, Canis lupus familiaris
[6] = Cmax in Sprague-Dawley rat assessed as BXN at 1 mg/kg, IV administered for 30 mins measured after 24 hrs post dose by LC-MS/MS analysis; type: ADME, organism-based; parameters: time 24.5 hrs, dose 1 mg/kg, route iv; conditions: in vivo, 24.5 h
[7] = Half life in beagle dog assessed as BXN at 1 mg/kg, IV administered for 30 mins measured after 24 hrs post dose by LC-MS/MS analysis; type: ADME, organism-based, Canis lupus familiaris; conditions: in vivo, 24.5 h
[8] = Prodrug conversion in Sprague-Dawley rat assessed as ratio of AUC for compound to BXN at 1 mg/kg,IV and measured after 60 mins by LC-MS/MS analysis; type: ADME, organism-based; conditions: in vivo, 1 h
[9] = AUClast in Sprague-Dawley rat assessed as BXN at 5 mg/kg, IM administered for 30 mins measured after 24 hrs post dose by LC-MS/MS analysis; type: ADME, organism-based; parameters: time 24.5 hrs, dose 5 mg/kg, route im; conditions: in vivo, 24.5 h
[10] = Half life in beagle dog assessed as BXN at 5 mg/kg, IM administered for 30 mins measured after 24 hrs post dose by LC-MS/MS analysis; type: ADME, organism-based, Canis lupus familiaris; conditions: in vivo, 24.5 h
[11] = Clearance in Sprague-Dawley rat at 1 mg/kg, IV administered for 30 mins measured after 24 hrs post dose by LC-MS/MS analysis; type: ADME, organism-based; conditions: in vivo, time 24.5 hrs
[12] = Prodrug conversion in Sprague-Dawley rat assessed as ratio of AUC for compound to BXN at 5 mg/kg,IM and measured after 60 mins by LC-MS/MS analysis; type: ADME, organism-based; conditions: in vivo, 1 h
[13] = Cmax in beagle dog assessed as BXN at 1 mg/kg, IV administered for 30 mins measured after 24 hrs post dose by LC-MS/MS analysis; type: ADME, organism-based, Canis lupus familiaris; parameters: dose 1 mg/kg, time 24.5 hrs, route iv; conditions: in vivo, 24.5 h
[14] = AUClast in beagle dog assessed as BXN at 1 mg/kg, IV administered for 30 mins measured after 24 hrs post dose by LC-MS/MS analysis; type: ADME, organism-based, Canis lupus familiaris; parameters: dose 1 mg/kg, time 24.5 hrs, route iv; conditions: in vivo, 24.5 h
[15] = Half life in Sprague-Dawley rat assessed as BXN at 5 mg/kg, IM administered for 30 mins measured after 24 hrs post dose by LC-MS/MS analysis; type: ADME, organism-based; conditions: in vivo, 24.5 h
[16] = AUClast in Sprague-Dawley rat assessed as BXN at 1 mg/kg, IV administered for 30 mins measured after 24 hrs post dose by LC-MS/MS analysis; type: ADME, organism-based; parameters: dose 1 mg/kg, time 24.5 hrs, route iv; conditions: in vivo, 24.5 h
[17] = Prodrug conversion in beagle dog assessed as ratio of AUC for compound to BXN at 1 mg/kg,IV and measured after 60 mins by LC-MS/MS analysis; type: ADME, organism-based, Canis lupus familiaris; conditions: in vivo, 1 h
[18] = Half life in Sprague-Dawley rat at 1 mg/kg, IV administered for 30 mins measured after 24 hrs post dose by LC-MS/MS analysis; type: ADME, organism-based; conditions: in vivo, time 24.5 hrs
[19] = Prodrug conversion in beagle dog assessed as ratio of AUC for compound to BXN at 5 mg/kg,IM and measured after 60 mins by LC-MS/MS analysis; type: ADME, organism-based, Canis lupus familiaris; conditions: in vivo, 1 h
[20] = AUClast in beagle dog at 1 mg/kg, IV administered for 30 mins measured after 24 hrs post dose by LC-MS/MS analysis; type: ADME, organism-based, Canis lupus familiaris; parameters: time 24.5 hrs, dose 1 mg/kg, route iv; conditions: in vivo
[21] = Half life in Sprague-Dawley rat assessed as BXN at 1 mg/kg, IV administered for 30 mins measured after 24 hrs post dose by LC-MS/MS analysis; type: ADME, organism-based; conditions: in vivo, 24.5 h
[22] = Cmax in Sprague-Dawley rat assessed as BXN at 5 mg/kg, IM administered for 30 mins measured after 24 hrs post dose by LC-MS/MS analysis; type: ADME, organism-based; parameters: time 24.5 hrs, dose 5 mg/kg, route im; conditions: in vivo, 24.5 h
[23] = Cmax in beagle dog at 1 mg/kg, IV administered for 30 mins measured after 24 hrs post dose by LC-MS/MS analysis; type: ADME, organism-based, Canis lupus familiaris; parameters: time 24.5 hrs, dose 1 mg/kg, route iv; conditions: in vivo
[24] = Cmax in Sprague-Dawley rat at 1 mg/kg, IV administered for 30 mins measured after 24 hrs post dose by LC-MS/MS analysis; type: ADME, organism-based; parameters: time 24.5 hrs, dose 1 mg/kg, route iv; conditions: in vivo
[25] = AUClast in Sprague-Dawley rat at 1 mg/kg, IV administered for 30 mins measured after 24 hrs post dose by LC-MS/MS analysis; type: ADME, organism-based; parameters: dose 1 mg/kg, time 24.5 hrs, route iv; conditions: in vivo
[26] = AUClast in beagle dog assessed as BXN at 5 mg/kg, IM administered for 30 mins measured after 24 hrs post dose by LC-MS/MS analysis; type: ADME, organism-based, Canis lupus familiaris; parameters: time 24.5 hrs, dose 5 mg/kg, route im; conditions: in vivo, 24.5 h
[27] = Cmax in beagle dog assessed as BXN at 5 mg/kg, IM administered for 30 mins measured after 24 hrs post dose by LC-MS/MS analysis; type: ADME, organism-based, Canis lupus familiaris; parameters: time 24.5 hrs, dose 5 mg/kg, route im; conditions: in vivo, 24.5 h
[28] = Metabolic stability in Sprague-Dawley rat liver S9 fraction assessed as half life at 1 uM incubated for 60 min by LC-MS/MS method; type: ADME, subcellular
[29] = AUClast in Sprague-Dawley rat at 5 mg/kg, IM administered for 30 mins measured after 24 hrs post dose by LC-MS/MS analysis; type: ADME, organism-based; parameters: time 24.5 hrs, dose 5 mg/kg, route im; conditions: in vivo
[30] = Cmax in Sprague-Dawley rat at 5 mg/kg, IM administered for 30 mins measured after 24 hrs post dose by LC-MS/MS analysis; type: ADME, organism-based; parameters: time 24.5 hrs, dose 5 mg/kg, route im; conditions: in vivo
[31] = Half life in Sprague-Dawley rat at 5 mg/kg, IM administered for 30 mins measured after 24 hrs post dose by LC-MS/MS analysis; type: ADME, organism-based; conditions: in vivo, time 24.5 hrs
[32] = AUClast in beagle dog at 5 mg/kg, IM administered for 30 mins measured after 24 hrs post dose by LC-MS/MS analysis; type: ADME, organism-based, Canis lupus familiaris; parameters: dose 5 mg/kg, time 24.5 hrs, route im; conditions: in vivo
[33] = Cmax in beagle dog at 5 mg/kg, IM administered for 30 mins measured after 24 hrs post dose by LC-MS/MS analysis; type: ADME, organism-based, Canis lupus familiaris; parameters: time 24.5 hrs, dose 5 mg/kg, route im; conditions: in vivo

CC(=O)OCCCC(=O)O[C@@H]1CC[C@@]2(C)[C@@H](CC[C@@H]3[C@@H]2CC[C@]2(C)[C@@H](C(C)=O)CC[C@@H]32)C1
half-life at 1 µM [1]: 0.9 min
half-life at 1 µM [2]: 138 min
half-life at 1 µM [3]: 1.6 min
half-life at 1 µM [4]: 176 min

CC(=O)[C@H]1CC[C@H]2[C@@H]3CC[C@H]4C[C@H](OC(=O)CC5CCCC5)CC[C@]4(C)[C@H]3CC[C@]12C
half-life at 1 µM [1]: 25 min
half-life at 1 µM [4]: 300 min

CC(=O)OCCCC(C)C(=O)O[C@@H]1CC[C@@]2(C)[C@@H](CC[C@@H]3[C@@H]2CC[C@]2(C)[C@@H](C(C)=O)CC[C@@H]32)C1 (some centres not stated)
half-life at 1 µM [1]: 0.9 min
half-life at 1 µM [2]: 233 min
half-life at 1 µM [4]: 145 min
half-life at 1 µM [5]: 1 min

CC(=O)[C@H]1CC[C@H]2[C@@H]3CC[C@H]4C[C@H](OC(=O)OCc5oc(=O)oc5C)CC[C@]4(C)[C@H]3CC[C@]12C
Cmax [6]: 107 ng/mL
t1/2 [7]: 28.4 min
Ratio AUC [8]: > 253
AUClast [9]: 253 ng·h/mL
half-life at 1 µM [1]: 1.2 min
half-life at 1 µM [2]: 30 min
t1/2 [10]: 10.3 h
clearance [11]: 440 mL/min/kg
Ratio AUC [12]: 2.9
Cmax [13]: 241 ng/mL
AUClast [14]: 148 ng·h/mL
t1/2 [15]: 1730 min
AUClast [16]: 113 ng·h/mL
half-life at 1 µM [3]: < 2 min
Ratio AUC [17]: 2.4
half-life [18]: 17 min
Ratio AUC [19]: > 122
AUC(0-t) at 24.5 h [20]: 62.6 ng·h/mL
t1/2 [21]: 1900 min
half-life at 1 µM [4]: 40 min
Cmax [22]: 23.4 ng/mL
Cmax [23]: 151 ng/mL
Cmax [24]: 103 ng/mL
AUC(0-t) at 24.5 h [25]: 38.6 ng·h/mL
AUClast [26]: 122 ng·h/mL
half-life at 1 µM [5]: 2.3 min
Cmax [27]: 26.6 ng/mL

CC(=O)[C@H]1CC[C@H]2[C@@H]3CC[C@H]4C[C@H](OC(=O)CCCOC(=O)C(C)C)CC[C@]4(C)[C@H]3CC[C@]12C
half-life at 1 µM [1]: 1.2 min
half-life at 1 µM [2]: 233 min
half-life at 1 µM [3]: 1.2 min
half-life at 1 µM [4]: 140 min
half-life at 1 µM [5]: 1.9 min
half-life at 1 µM [28]: 1.1 min

CCCCOC(=O)O[C@@H]1CC[C@@]2(C)[C@@H](CC[C@@H]3[C@@H]2CC[C@]2(C)[C@@H](C(C)=O)CC[C@@H]32)C1
half-life at 1 µM [1]: 1.6 min
half-life at 1 µM [2]: 132 min
half-life at 1 µM [3]: 6.3 min
half-life at 1 µM [4]: > 233 min
half-life at 1 µM [5]: 1.5 min
half-life at 1 µM [28]: 16 min

CC(=O)[C@H]1CC[C@H]2[C@@H]3CC[C@H]4C[C@H](OC(=O)NCCOC(=O)C(C)C)CC[C@]4(C)[C@H]3CC[C@]12C
half-life at 1 µM [1]: 0.6 min
half-life at 1 µM [4]: 289 min

CC(=O)[C@H]1CC[C@H]2[C@@H]3CC[C@H]4C[C@H](OC(=O)OCCN(C)C(=O)C(C)C)CC[C@]4(C)[C@H]3CC[C@]12C
half-life at 1 µM [1]: 4.3 min
half-life at 1 µM [4]: 289 min

CC(=O)[C@H]1CC[C@H]2[C@@H]3CC[C@H]4C[C@H](OC(=O)N(C)CCOC(=O)C(C)C)CC[C@]4(C)[C@H]3CC[C@]12C
half-life at 1 µM [1]: 0.9 min
half-life at 1 µM [2]: 138 min
half-life at 1 µM [3]: 1.6 min
half-life at 1 µM [4]: 176 min
half-life at 1 µM [5]: 1.8 min

CCCCCCCC(=O)O[C@@H]1CC[C@@]2(C)[C@@H](CC[C@@H]3[C@@H]2CC[C@]2(C)[C@@H](C(C)=O)CC[C@@H]32)C1
half-life at 1 µM [1]: 34.3 min
half-life at 1 µM [4]: > 300 min

CCCCCC(=O)O[C@@H]1CC[C@@]2(C)[C@@H](CC[C@@H]3[C@@H]2CC[C@]2(C)[C@@H](C(C)=O)CC[C@@H]32)C1
AUClast [9]: 67.9 ng·h/mL
half-life at 1 µM [1]: 22.9 min
half-life at 1 µM [3]: > 289 min
Ratio AUC [19]: 0.09
AUC(0-t) at 24.5 h [29]: 716 ng·h/mL
half-life at 1 µM [4]: > 300 min
Cmax [30]: 130 ng/mL
Cmax [22]: 12.9 ng/mL
half-life [31]: 476 min
half-life at 1 µM [28]: 4.7 min

CC(=O)[C@H]1CC[C@H]2[C@@H]3CC[C@H]4C[C@H](OC(=O)OCCOC(=O)C(C)C)CC[C@]4(C)[C@H]3CC[C@]12C
Cmax [6]: 119 ng/mL
Ratio AUC [8]: > 390
AUClast [9]: 390 ng·h/mL
half-life at 1 µM [1]: 2.5 min
half-life at 1 µM [2]: 92 min
t1/2 [10]: 53.3 h
Ratio AUC [12]: 28
Cmax [13]: 41.9 ng/mL
AUClast [14]: 24 ng·h/mL
AUClast [16]: 256 ng·h/mL
half-life at 1 µM [3]: < 3 min
Ratio AUC [17]: 0.1
Ratio AUC [19]: 3.3
AUC(0-t) at 24.5 h [20]: 238 ng·h/mL
t1/2 [21]: 810 min
half-life at 1 µM [4]: 90 min
Cmax [22]: 81.2 ng/mL
Cmax [23]: 590 ng/mL
AUC(0-t) at 24.5 h [32]: 36.5 ng·h/mL
Cmax [24]: 45.6 ng/mL
half-life [31]: 143 min
AUC(0-t) at 24.5 h [25]: 9.03 ng·h/mL
Cmax [33]: 31.4 ng/mL
AUClast [26]: 119 ng·h/mL
half-life at 1 µM [5]: 2.5 min
Cmax [27]: 11.3 ng/mL

CC(=O)OCCCCC(=O)O[C@@H]1CC[C@@]2(C)[C@@H](CC[C@@H]3[C@@H]2CC[C@]2(C)[C@@H](C(C)=O)CC[C@@H]32)C1
half-life at 1 µM [1]: 0.8 min
half-life at 1 µM [2]: 87 min
half-life at 1 µM [4]: 107 min
half-life at 1 µM [5]: 1 min

COC(=O)N(C)CCOC(=O)O[C@@H]1CC[C@@]2(C)[C@@H](CC[C@@H]3[C@@H]2CC[C@]2(C)[C@@H](C(C)=O)CC[C@@H]32)C1
half-life at 1 µM [1]: 0.7 min
half-life at 1 µM [4]: 289 min
